In patent publication US20090156518A1, “STABLE PHARMACEUTICAL COMPOSITION COMPRISING BETA-LACTAM ANTIBIOTIC AND BUFFER” (priority 2006, published 2009):
Each block holds one compound with its values, some of them ahead of it.

Test: amounts of β-lactam antibiotic, β-lactamase inhibitor (C18 reverse-phase LC, UV-VIS) and aminoglycoside (HPLC-ELSD) in solution over time
Format: physicochemical
Description: The amounts of β-lactam antibiotics and β-lactamase inhibitor were determined using C18 reverse-phase LC and UV-VIS detector (Tianjin Hemay BioTech Co., Ltd., analysis method No. HM-K-03). The content of aminoglycoside antibiotics was measured using reverse-phase HPLC and evaporation-light-scattering detector (ELSD detector) (Tianjin Hemay BioTech Co., Ltd., analysis method No. HM-K-08). The amount of antibiotic component at each time point was expressed as a percentage with respect to the amount at the initial time (herein defined as 100%). The relative amount of each antibiotic component in the composition at each time point was expressed as peak area ratio with respect to the corresponding peak area of an external standard.

amount of component as percentage with respect to the amount at the initial time (Example 5: freeze-dried cefoperazone sodium 4 g, sulbactam sodium 0.5 g, citrate pH 6.75, + amikacin sulfate 500 mg, 7 days 0° C., dissolved in 100 mL water, Time 0 h): 98.98%
amount of component as percentage with respect to the amount at the initial time (Example 5: freeze-dried cefoperazone sodium 4 g, sulbactam sodium 0.5 g, citrate pH 6.75, + amikacin sulfate 500 mg, 7 days 0° C., dissolved in 100 mL water, Time 1 h): 98.73%
amount of component as percentage with respect to the amount at the initial time (Example 5: freeze-dried cefoperazone sodium 4 g, sulbactam sodium 0.5 g, citrate pH 6.75, + amikacin sulfate 500 mg, 7 days 0° C., dissolved in 100 mL water, Time 2 h): 98.52%
amount of component as percentage with respect to the amount at the initial time (Example 5: freeze-dried cefoperazone sodium 4 g, sulbactam sodium 0.5 g, citrate pH 6.75, + amikacin sulfate 500 mg, 7 days 0° C., dissolved in 100 mL water, Time 4 h): 98.41%
amount of component as percentage with respect to the amount at the initial time (Example 5: freeze-dried cefoperazone sodium 4 g, sulbactam sodium 0.5 g, citrate pH 6.75, + amikacin sulfate 500 mg, 7 days 0° C., dissolved in 100 mL water, Time 6 h): 98.76%
amount of component as percentage with respect to the amount at the initial time (Example 17: freeze-dried cefoperazone sodium 4 g, sulbactam sodium 1 g, citrate pH 6.75, 7 days 0° C., in 100 mL water, 10 mL + amikacin sulfate 40 mg, room temperature, Time 0 h): 99.91%
amount of component as percentage with respect to the amount at the initial time (Example 17: freeze-dried cefoperazone sodium 4 g, sulbactam sodium 1 g, citrate pH 6.75, 7 days 0° C., in 100 mL water, 10 mL + amikacin sulfate 40 mg, room temperature, Time 1 h): 99.50%
amount of component as percentage with respect to the amount at the initial time (Example 17: freeze-dried cefoperazone sodium 4 g, sulbactam sodium 1 g, citrate pH 6.75, 7 days 0° C., in 100 mL water, 10 mL + amikacin sulfate 40 mg, room temperature, Time 2 h): 98.88%
amount of component as percentage with respect to the amount at the initial time (Example 17: freeze-dried cefoperazone sodium 4 g, sulbactam sodium 1 g, citrate pH 6.75, 7 days 0° C., in 100 mL water, 10 mL + amikacin sulfate 40 mg, room temperature, Time 4 h): 99.45%
amount of component as percentage with respect to the amount at the initial time (Example 17: freeze-dried cefoperazone sodium 4 g, sulbactam sodium 1 g, citrate pH 6.75, 7 days 0° C., in 100 mL water, 10 mL + amikacin sulfate 40 mg, room temperature, Time 6 h): 98.56%
amount of component as percentage with respect to the amount at the initial time (Example 17: freeze-dried cefoperazone sodium 4 g, sulbactam sodium 1 g, citrate pH 6.75, 7 days 0° C., in 100 mL water, 10 mL + amikacin sulfate 40 mg, room temperature, Time 8 h): 99.36%
Structure (SMILES): NCC[C@H](O)C(=O)N[C@@H]1C[C@H](N)[C@@H](O[C@H]2O[C@H](CN)[C@@H](O)[C@H](O)[C@H]2O)[C@H](O)[C@H]1O[C@H]1O[C@H](CO)[C@@H](O)[C@H](N)[C@H]1O.O=S(=O)(O)O.O=S(=O)(O)O [Amikacin sulfate, amikacin sulfate]

amount of component as percentage with respect to the amount at the initial time (Example 12: freeze-dried cefodizime sodium, citrate pH 6.75, 7 days 0° C., in 100 mL 5% fructose + etimicin sulfate 200 mg, Time 0 h): 99.01%
amount of component as percentage with respect to the amount at the initial time (Example 12: freeze-dried cefodizime sodium, citrate pH 6.75, 7 days 0° C., in 100 mL 5% fructose + etimicin sulfate 200 mg, Time 1 h): 103.8%
amount of component as percentage with respect to the amount at the initial time (Example 12: freeze-dried cefodizime sodium, citrate pH 6.75, 7 days 0° C., in 100 mL 5% fructose + etimicin sulfate 200 mg, Time 2 h): 98.33%
amount of component as percentage with respect to the amount at the initial time (Example 12: freeze-dried cefodizime sodium, citrate pH 6.75, 7 days 0° C., in 100 mL 5% fructose + etimicin sulfate 200 mg, Time 4 h): 98.99%
amount of component as percentage with respect to the amount at the initial time (Example 12: freeze-dried cefodizime sodium, citrate pH 6.75, 7 days 0° C., in 100 mL 5% fructose + etimicin sulfate 200 mg, Time 6 h): 97.89%
amount of component as percentage with respect to the amount at the initial time (Example 12: freeze-dried cefodizime sodium, citrate pH 6.75, 7 days 0° C., in 100 mL 5% fructose + etimicin sulfate 200 mg, Time 8 h): 92.52%
amount of component as percentage with respect to the amount at the initial time (Example 18: cefodizime sodium 1 g, etimicin sulfate 200 mg, citrate pH 6.75, 200 mL water, room temperature, Time 0 h): 99.01%
amount of component as percentage with respect to the amount at the initial time (Example 18: cefodizime sodium 1 g, etimicin sulfate 200 mg, citrate pH 6.75, 200 mL water, room temperature, Time 1 h): 103.8%
amount of component as percentage with respect to the amount at the initial time (Example 18: cefodizime sodium 1 g, etimicin sulfate 200 mg, citrate pH 6.75, 200 mL water, room temperature, Time 2 h): 98.33%
amount of component as percentage with respect to the amount at the initial time (Example 18: cefodizime sodium 1 g, etimicin sulfate 200 mg, citrate pH 6.75, 200 mL water, room temperature, Time 4 h): 98.99%
amount of component as percentage with respect to the amount at the initial time (Example 18: cefodizime sodium 1 g, etimicin sulfate 200 mg, citrate pH 6.75, 200 mL water, room temperature, Time 6 h): 97.89%
amount of component as percentage with respect to the amount at the initial time (Example 18: cefodizime sodium 1 g, etimicin sulfate 200 mg, citrate pH 6.75, 200 mL water, room temperature, Time 8 h): 92.52%
Structure (SMILES): CO/N=C(\C(=O)N[C@@H]1C(=O)N2C(C(=O)O)=C(CSc3nc(C)c(CC(=O)O)s3)CS[C@H]12)c1csc(N)n1 [Cefodizime sodium]
